# Experiments:
# [1] = system: inflammatory cytokines; conditions: mouse models; cited from earlier work
# [2] = system: primary human monocytes; assay: Immunoblot analyses of primary human monocyte extracts; assay type: cell-based
# Description: EDTA-anticoagulated blood was incubated with human monocyte enrichment cocktail (Stem Cell Technologies, Vancouver, BC, Canada) for 20 minutes and layered on Ficoll Paque™ in a Sepmate™ 50 tube (Stem Cell Tech). The cells were centrifuged at 1200×g for 10 minutes and the monocyte containing layer of cells was isolated, washed with PBS containing 2% HI FBS and 1 mM EDTA.
# (§1) Differentiated THP-1 cells (˜8×10^5 cells/2.5 ml medium) were starved in complete medium containing […] for 1 day as above, and fresh 2.5 ml RPMI 1640+1% FBS+P/S was added for 2 hours. For experiments with fresh monocytes, cells (>80% CD14+) were resuspended (˜10^6 cells/nil) in monocyte attachment medium (Promocell, Heidelberg, Germany) in wells of a 12 well plate for 2 hours at 37° C. in 5% CO2. The cells were then washed two times with RPMI medium containing 1% HI FBS and suspended overnight in RPMI medium containing 1% HI FBS. Cells were stimulated with agonists with or without RTD-1 (SEQ ID NO. 1) as described in the figure legends after which cells were washed with PBS and extracts were prepared in cell lysis buffer+1 mM PMSF. Protein content was determined using the BCA method (BioRad, San Diego, Calif.) and extracts resolved on SDS-tricine gels and transferred to nitrocellulose membrane. The membranes were probed with the indicated antibodies and developed using anti-mouse or anti-rabbit HRP conjugated secondary antibodies and detected by chemiluminescence. A phosphoprotein antibody array (Phospho-MAPK™; R&D systems Minneapolis, Minn.) was used to analyze activation of phosphoprotein kinases. Differentiated THP-1 cells (1.6×10^6 cells) were treated with 100 ng/ml LPS, 10 μg/ml RTD-1 (SEQ ID NO. 1), 100 ng/ml LPS+10 μg/ml RTD-1, or vehicle for 30 minutes. Arrays were probed with 200 μg of cell extract protein and chemiluminescence of spots from arrays or bands from western blotting was quantified using NIH ImageJ software, background subtracted, normalized and plotted.
# [3] = system: THP-1 cells; assay: Immunoblot analyses of THP-1 cell extracts; assay type: cell-based, human
# Description: as §1
# [4] = Binding to LPS
# [5] = LPS 100 ng/ml, RTD-1 10 μg/ml, 30 minutes
substance,measurement,setting,value
"RTD-1: rhesus theta-defensin 1, macrocyclic tri-disulfide θ-defensin peptide, SEQ ID NO. 1, synthetic (cyclo(GFCRCLCRRGVCRCICTR); disulfide (positions not given here); not fully specified (bridges); also: three disulfides, places not given here; listed as Macaca mulatta)","inflammatory cytokines, including TNF-α, IL-1β and several chemokines",[1],reduce inflammatory cytokines
same,degradation of IκBα in LPS stimulated monocytes,[2]; [5],reduced
same,p38 MAP kinase phosphorylation in LPS stimulated monocytes,[2]; [5],inhibited
same,degradation of IκBα,"[2]; RTD-1 alone, monocytes",did not induce
same,phosphorylation of Akt,"[2]; monocytes treated with LPS and RTD-1 or RTD-1 alone, compared to control cells",increased phosphorylation
same,p38 MAP kinase phosphorylation,"[2]; peptide alone, monocytes",no effect
same,JNK1/2 kinase phosphorylation,"[3]; LPS 100 ng/ml, RTD-1 10 μg/ml",inhibition
same,degradation of IκBα in LPS stimulated macrophages,"[3]; LPS 100 ng/ml, RTD-1 10 μg/ml",effective in blocking
same,p38 MAP kinase phosphorylation,"[3]; LPS 100 ng/ml, RTD-1 10 μg/ml",inhibition
same,P-Akt levels remained elevated,"[3]; RTD-1 10 μg/ml alone, for at least 4 hours",~2.5 fold
same,increase in P-Akt,"[3]; RTD-1 10 μg/ml alone, within 10 minutes of peptide treatment",6.5 fold
same,IκBα levels and phosphorylation of p38 MAP and JNK1/2 kinases,[3]; RTD-1 alone,no effect
same,binding to LPS,[4],binds inefficiently

# From patent publication US20170035845A1, “Compositions and Methods for Inhibiting Pro-Inflammatory Cytokine Gene Expression” (The Regents of the University of California, priority 2015, published 2017)
